# Test results as given in US6355799B1, “Substituted benzene compounds, process for their preparation, and herbicidal and defoliant compositions containing them” (ISK Americas Incorporated, priority 1997, dated 2002).
# Assays:
# Type in all cases: in vivo
# [1] = system: redroot pigweed (Amaranthus retroflexus, AMARE); test: Pre-emerge test, greenhouse herbicide activity screening; settings: pre-emerge, 14 days after application, scale 0-100
# Summary of the method: (§1)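 Plants grown in 10 cm pots of sandy loam mix received acetone-dissolved compounds through a moving flat-fan nozzle. Doses ranged from 15 to 1000 g ai/ha. Pre-emerge pots were seeded one day earlier, post-emerge pots 8–21 days earlier. Fourteen days on, each pot was graded 0–100 for damage.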
# [2] = system: velvetleaf (Abutilon theophrasti, ABUTH); test: Post-emerge test, greenhouse herbicide activity screening; settings: post-emerge, 14 days after application, rating scale 0-100
# Summary of the method: (§2)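 Rating: 0–100 visual injury, 14 DAA. Application: acetone, 187 l/ha, 15–1000 g ai/ha, flat-fan track sprayer with nozzle 40–45 cm above soil or canopy. Post-emerge runs used 0.25% v/v surfactant on 2–3 leaf plants.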
# [3] = system: johnsongrass (Sorghum halepense, SORHA); test: as above; settings: post-emerge, 14 days after application, rating scale 0-100
# Summary of the method: as §2
# [4] = system: barnyardgrass (Echinochloa crus-galli, ECHCG); test: as above; settings: post-emerge, 14 days after application, rating scale 0-100
# Summary of the method: as §2
# [5] = system: lambsquarters (Chenopodium album, CHEAL); test: as above; settings: post-emerge, 14 days after application, rating scale 0-100
# Summary of the method: as §2
# [6] = system: sicklepod (Cassia obtusifolia, CASOB); test: as above; settings: post-emerge, 14 days after application, rating scale 0-100
# Summary of the method: as §2
# [7] = system: ivyleaf morningglory (Ipomoea hederacea, IPOHE); test: as above; settings: post-emerge, 14 days after application, rating scale 0-100
# Summary of the method: as §2
# [8] = system: green foxtail (Setaria viridis, SETVI); test: as above; settings: post-emerge, 14 days after application, rating scale 0-100
# Summary of the method: as §2
# [9] = system: redroot pigweed (Amaranthus retroflexus, AMARE); test: as above; settings: post-emerge, 14 days after application, rating scale 0-100
# Summary of the method: as §2
# [10] = system: large crabgrass (Digitaria sanguinalis, DIGSA); test: as above; settings: post-emerge, 14 days after application, rating scale 0-100
# Summary of the method: as §2
# [11] = system: upland rice (Oryza sp., var. Tebonnet, RICE); test: Post-emerge test, crop safety; settings: post-emerge, 14 days after application, rating scale 0-100
# Summary of the method: as §1
# [12] = system: field corn (Zea mays L., var. Dekalb 535, CORN); test: Post-emerge test, crop safety; settings: post-emerge, 14 days after application, rating scale 0-100
# Summary of the method: as §1
# [13] = system: upland rice (Oryza sp., var. Tebonnet, RICE); test: Pre-emerge test, crop safety; settings: pre-emerge, 14 days after application, scale 0-100
# Summary of the method: as §1
# [14] = system: field corn (Zea mays L., var. Dekalb 535, CORN); test: Pre-emerge test, crop safety; settings: pre-emerge, 14 days after application, scale 0-100
# Summary of the method: as §1
# [15] = system: velvetleaf (Abutilon theophrasti, ABUTH); test: Pre-emerge test, greenhouse herbicide activity screening; settings: pre-emerge, 14 days after application, scale 0-100
# Summary of the method: as §2
# [16] = system: johnsongrass (Sorghum halepense, SORHA); test: as above; settings: pre-emerge, 14 days after application, scale 0-100
# Summary of the method: as §2
# [17] = system: barnyardgrass (Echinochloa crus-galli, ECHCG); test: as above; settings: pre-emerge, 14 days after application, scale 0-100
# Summary of the method: as §2
# [18] = system: lambsquarters (Chenopodium album, CHEAL); test: as above; settings: pre-emerge, 14 days after application, scale 0-100
# Summary of the method: as §2
# [19] = system: sicklepod (Cassia obtusifolia, CASOB); test: as above; settings: pre-emerge, 14 days after application, scale 0-100
# Summary of the method: as §2
# [20] = system: ivyleaf morningglory (Ipomoea hederacea, IPOHE); test: as above; settings: pre-emerge, 14 days after application, scale 0-100
# Summary of the method: as §2
# [21] = system: green foxtail (Setaria viridis, SETVI); test: as above; settings: pre-emerge, 14 days after application, scale 0-100
# Summary of the method: as §2
# [22] = system: large crabgrass (Digitaria sanguinalis, DIGSA); test: as above; settings: pre-emerge, 14 days after application, scale 0-100
# Summary of the method: as §2
# [23] = system: common ragweed (Ambrosia artemisizfolia L., AMBEL); test: as above; settings: pre-emerge, 14 days after application, scale 0-100
# Summary of the method: as §2
compound,measurement,setting,value
Cn1c(C(F)(F)F)cc(=O)n(-c2ccc(C(F)(F)F)cc2NC(=O)c2ccc3ccccc3c2)c1=O [2-149],phytotoxicity rating AMARE,[1]; 63 g ai/ha,100
same,phytotoxicity rating AMARE,[1]; 250 g ai/ha,100
same,ABUTH phytotoxicity rating,[2]; 63 g ai/ha,100
same,ABUTH phytotoxicity rating,[2]; 250 g ai/ha,100
same,SORHA phytotoxicity rating,[3]; 63 g ai/ha,0
same,SORHA phytotoxicity rating,[3]; 250 g ai/ha,0
same,ECHCG phytotoxicity rating,[4]; 63 g ai/ha,20
same,ECHCG phytotoxicity rating,[4]; 250 g ai/ha,50
same,CHEAL phytotoxicity rating,[5]; 63 g ai/ha,90
same,CHEAL phytotoxicity rating,[5]; 250 g ai/ha,95
same,CASOB phytotoxicity rating,[6]; 63 g ai/ha,95
same,CASOB phytotoxicity rating,[6]; 250 g ai/ha,95
same,IPOHE phytotoxicity rating,[7]; 63 g ai/ha,70
same,IPOHE phytotoxicity rating,[7]; 250 g ai/ha,95
same,SETVI phytotoxicity rating,[8]; 63 g ai/ha,10
same,SETVI phytotoxicity rating,[8]; 250 g ai/ha,20
same,AMARE phytotoxicity rating,[9]; 63 g ai/ha,80
same,AMARE phytotoxicity rating,[9]; 250 g ai/ha,80
same,DIGSA phytotoxicity rating,[10]; 63 g ai/ha,0
same,DIGSA phytotoxicity rating,[10]; 250 g ai/ha,20
same,RICE phytotoxicity rating (crop damage),[11]; 63 g ai/ha,0
same,RICE phytotoxicity rating (crop damage),[11]; 250 g ai/ha,10
same,CORN phytotoxicity rating (crop damage),[12]; 63 g ai/ha,0
same,CORN phytotoxicity rating (crop damage),[12]; 250 g ai/ha,15
same,phytotoxicity rating RICE (crop damage),[13]; 63 g ai/ha,0
same,phytotoxicity rating RICE (crop damage),[13]; 250 g ai/ha,50
same,phytotoxicity rating CORN (crop damage),[14]; 63 g ai/ha,0
same,phytotoxicity rating CORN (crop damage),[14]; 250 g ai/ha,20
same,phytotoxicity rating ABUTH,[15]; 63 g ai/ha,99
same,phytotoxicity rating ABUTH,[15]; 250 g ai/ha,100
same,phytotoxicity rating SORHA,[16]; 63 g ai/ha,30
same,phytotoxicity rating SORHA,[16]; 250 g ai/ha,50
same,phytotoxicity rating ECHCG,[17]; 63 g ai/ha,50
same,phytotoxicity rating ECHCG,[17]; 250 g ai/ha,100
same,phytotoxicity rating CHEAL,[18]; 63 g ai/ha,100
same,phytotoxicity rating CHEAL,[18]; 250 g ai/ha,100
same,phytotoxicity rating CASOB,[19]; 63 g ai/ha,0
same,phytotoxicity rating CASOB,[19]; 250 g ai/ha,50
same,phytotoxicity rating IPOHE,[20]; 63 g ai/ha,30
same,phytotoxicity rating IPOHE,[20]; 250 g ai/ha,70
same,phytotoxicity rating SETVI,[21]; 63 g ai/ha,50
same,phytotoxicity rating SETVI,[21]; 250 g ai/ha,90
same,phytotoxicity rating DIGSA,[22]; 63 g ai/ha,90
same,phytotoxicity rating DIGSA,[22]; 250 g ai/ha,100
same,phytotoxicity rating AMBEL,[23]; 63 g ai/ha,0
same,phytotoxicity rating AMBEL,[23]; 250 g ai/ha,100
COc1c(Cl)cc(F)c(-n2c(=O)cc(C(F)(F)F)n(C)c2=O)c1NC(=O)c1ccc2c(C#N)cccc2c1 [2-163],phytotoxicity rating AMARE,[1]; 63 g ai/ha,100
same,phytotoxicity rating AMARE,[1]; 250 g ai/ha,100
same,ABUTH phytotoxicity rating,[2]; 63 g ai/ha,99
same,ABUTH phytotoxicity rating,[2]; 250 g ai/ha,100
same,SORHA phytotoxicity rating,[3]; 63 g ai/ha,0
same,SORHA phytotoxicity rating,[3]; 250 g ai/ha,10
same,ECHCG phytotoxicity rating,[4]; 63 g ai/ha,55
same,ECHCG phytotoxicity rating,[4]; 250 g ai/ha,70
same,CHEAL phytotoxicity rating,[5]; 63 g ai/ha,100
same,CHEAL phytotoxicity rating,[5]; 250 g ai/ha,100
same,CASOB phytotoxicity rating,[6]; 63 g ai/ha,90
same,CASOB phytotoxicity rating,[6]; 250 g ai/ha,90
same,IPOHE phytotoxicity rating,[7]; 63 g ai/ha,98
same,IPOHE phytotoxicity rating,[7]; 250 g ai/ha,95
same,SETVI phytotoxicity rating,[8]; 63 g ai/ha,50
same,SETVI phytotoxicity rating,[8]; 250 g ai/ha,60
same,AMARE phytotoxicity rating,[9]; 63 g ai/ha,100
same,AMARE phytotoxicity rating,[9]; 250 g ai/ha,100
same,DIGSA phytotoxicity rating,[10]; 63 g ai/ha,30
same,DIGSA phytotoxicity rating,[10]; 250 g ai/ha,45
same,RICE phytotoxicity rating (crop damage),[11]; 63 g ai/ha,20
same,RICE phytotoxicity rating (crop damage),[11]; 250 g ai/ha,55
same,CORN phytotoxicity rating (crop damage),[12]; 63 g ai/ha,35
same,CORN phytotoxicity rating (crop damage),[12]; 250 g ai/ha,40
same,phytotoxicity rating RICE (crop damage),[13]; 63 g ai/ha,0
same,phytotoxicity rating RICE (crop damage),[13]; 250 g ai/ha,30
same,phytotoxicity rating CORN (crop damage),[14]; 63 g ai/ha,0
same,phytotoxicity rating CORN (crop damage),[14]; 250 g ai/ha,0
same,phytotoxicity rating ABUTH,[15]; 63 g ai/ha,95
same,phytotoxicity rating ABUTH,[15]; 250 g ai/ha,100
same,phytotoxicity rating SORHA,[16]; 63 g ai/ha,0
same,phytotoxicity rating SORHA,[16]; 250 g ai/ha,30
same,phytotoxicity rating ECHCG,[17]; 63 g ai/ha,0
same,phytotoxicity rating ECHCG,[17]; 250 g ai/ha,75
same,phytotoxicity rating CHEAL,[18]; 63 g ai/ha,100
same,phytotoxicity rating CHEAL,[18]; 250 g ai/ha,100
same,phytotoxicity rating CASOB,[19]; 63 g ai/ha,10
same,phytotoxicity rating CASOB,[19]; 250 g ai/ha,60
same,phytotoxicity rating IPOHE,[20]; 63 g ai/ha,40
same,phytotoxicity rating IPOHE,[20]; 250 g ai/ha,95
same,phytotoxicity rating SETVI,[21]; 63 g ai/ha,60
same,phytotoxicity rating SETVI,[21]; 250 g ai/ha,95
same,phytotoxicity rating DIGSA,[22]; 63 g ai/ha,35
same,phytotoxicity rating DIGSA,[22]; 250 g ai/ha,100
same,phytotoxicity rating AMBEL,[23]; 63 g ai/ha,65
same,phytotoxicity rating AMBEL,[23]; 250 g ai/ha,95
